Experiment [1] relates to 40 other CNS targets. Kind of experiment: Off-target binding (NIMH PDSP). The conditions noted are these: 10 µM. The method, then: Table S1. Off binding data of CW24.
The off-target binding assays were performed at PDSP with their standard protocol (https://pdspdb.unc.edu/pdspWeb/content/UNC-CH%20Protocol%20Book.pdf). In radioligand binding assays, CW24 was tested at a single concentration (10 µM) and in quadruplicate in 96-well plates. The binding assays were carried out in a final of volume of 125 µl per well in appropriate binding buffers. The hot ligand concentration is usually at a concentration close to the Kd (unless otherwise indicated). Total binding and nonspecific binding are determined in the absence and presence of 10 µM of the appropriate reference compound, respectively. In brief, plates are usually incubated at room temperature and in the dark for 90 mins. Reactions are stopped by vacuum filtration onto 0.3% polyethyleneimine (PEI) soaked 96-well filter mats using a 96-well Filtermate harvester, followed by three washes with cold wash buffers (for details, see Tables 2 to 24). Scintillation cocktail is then melted onto the microwave-dried filters on a hot plate and radioactivity is counted in a Microbeta counter.
Receptor % Inhibition 1 % Inhibition 2 % Inhibition 3 % Inhibition 4 Mean±SD %

The target in experiment [2] is T1, Alpha1B (Homo sapiens, UniProt P35368).
T1 construct: NIMH PDSP
T1 sequence (P35368 1-520): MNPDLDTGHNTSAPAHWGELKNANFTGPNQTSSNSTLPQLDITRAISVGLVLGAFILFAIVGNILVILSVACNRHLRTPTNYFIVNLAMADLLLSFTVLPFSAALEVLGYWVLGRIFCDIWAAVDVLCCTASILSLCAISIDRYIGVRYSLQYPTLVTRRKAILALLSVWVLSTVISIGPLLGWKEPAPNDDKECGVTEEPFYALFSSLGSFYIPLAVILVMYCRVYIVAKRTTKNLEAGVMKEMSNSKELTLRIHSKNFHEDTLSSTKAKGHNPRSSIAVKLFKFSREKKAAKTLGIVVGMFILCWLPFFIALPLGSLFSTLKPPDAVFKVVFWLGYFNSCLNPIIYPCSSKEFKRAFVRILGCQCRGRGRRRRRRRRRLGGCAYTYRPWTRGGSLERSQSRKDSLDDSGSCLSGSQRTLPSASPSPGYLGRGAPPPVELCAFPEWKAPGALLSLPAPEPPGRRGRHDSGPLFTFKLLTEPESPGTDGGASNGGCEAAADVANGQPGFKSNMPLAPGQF
As to the kind of experiment: PDSP off-target radioligand binding assay. Put shortly: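 Plates containing receptor, radioligand at roughly its Kd and 10 µM compound are incubated 90 min at room temperature, protected from light. Filtration onto PEI-treated mats stops the reaction; counted radioactivity, corrected by nonspecific binding with 10 µM reference ligand, yields % inhibition from quadruplicates.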

Experiment [3] has as its target T2, human recombinant orexin OX1 receptors (Homo sapiens, UniProt O43613).
T2 construct: host or cells: CHO-S cells
T2 sequence (O43613 1-425): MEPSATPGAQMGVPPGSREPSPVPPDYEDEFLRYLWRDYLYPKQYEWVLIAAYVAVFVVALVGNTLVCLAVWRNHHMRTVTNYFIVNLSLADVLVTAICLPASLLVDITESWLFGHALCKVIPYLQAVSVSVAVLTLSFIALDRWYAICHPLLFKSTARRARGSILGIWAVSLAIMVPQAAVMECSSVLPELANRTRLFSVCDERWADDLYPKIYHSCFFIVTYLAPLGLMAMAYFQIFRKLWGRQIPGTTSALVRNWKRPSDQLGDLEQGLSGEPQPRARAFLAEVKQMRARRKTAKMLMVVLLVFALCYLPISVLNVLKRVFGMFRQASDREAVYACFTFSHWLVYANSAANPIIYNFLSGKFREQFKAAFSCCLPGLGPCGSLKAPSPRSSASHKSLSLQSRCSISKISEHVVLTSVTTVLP
As to the kind of experiment: Human Orexin GPCR Binding (Agonist Radioligand) Assay, [125I] Orexin A competition. The method, then:
(§1) Radioligand competition binding assays were performed by Panlabs, Eurofins Pharma Discovery Services. Briefly, human recombinant orexin OX1 receptors expressed in CHO-S cells were used in modified HEPES buffer pH 7.4. […] Orexin A for 60 minutes at 25 °C. […] Orexin A specifically binding. Human recombinant OX2 receptors were used in modified HEPES buffer pH 7.4. […] Orexin A for 180 minutes at 25 °C. […] Orexin A specifically bound.

For experiment [4], the target named is T3, Human recombinant OX2 receptors (Homo sapiens, UniProt O43614).
T3 sequence (O43614 1-444): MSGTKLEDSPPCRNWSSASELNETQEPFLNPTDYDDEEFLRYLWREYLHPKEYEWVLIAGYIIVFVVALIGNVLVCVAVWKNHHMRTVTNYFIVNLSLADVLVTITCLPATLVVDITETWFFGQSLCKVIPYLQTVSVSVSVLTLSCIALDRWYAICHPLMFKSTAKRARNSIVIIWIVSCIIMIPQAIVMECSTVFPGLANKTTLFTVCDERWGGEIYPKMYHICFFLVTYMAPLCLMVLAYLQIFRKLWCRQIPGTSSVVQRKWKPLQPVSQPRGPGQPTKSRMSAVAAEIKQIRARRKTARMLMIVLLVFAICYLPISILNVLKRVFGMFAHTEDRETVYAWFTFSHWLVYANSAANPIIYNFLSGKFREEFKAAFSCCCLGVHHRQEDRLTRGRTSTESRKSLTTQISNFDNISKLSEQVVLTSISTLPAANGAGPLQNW
The experiment is described as above. The method, then:
as §1

Like-named read-outs stand apart in the source and are kept apart here.

Usually inhibition stands for the relative decrease from the control value, in per cent. Broadly, the IC50 is the point on the concentration scale where inhibition reaches its midpoint. `COc1ccnc(N2CCC3(CCCN(Cc4cn(C)c5ccccc45)C3=O)CC2)n1` [CW24]: in experiment [1], the “selectivity for OXRs compared to 40 other CNS targets” value was “selective”. Moreover, the inhibition at 10 µM is -20.7 ± 12.8% in experiment [2] (quadruplicate, read-out: Mean±SD % inhibition); -6.11% in experiment [2] (replicate 1, read-out: % Inhibition 1); -16.3% in experiment [2] (replicate 2, read-out: % Inhibition 2); -36.7% in experiment [2] (replicate 3, read-out: % Inhibition 3); -23.6% in experiment [2] (replicate 4, read-out: % Inhibition 4). The “increase in potency compared to IPSU binding (OX1R)” value in experiment [3] (CW24 vs IPSU) is ~ 5 fold. Moreover, the half-maximal inhibitory concentration (IC50) in experiment [3] (competition binding against [^125I] orexin, read-out: IC50 OX1R) was 253 nM; in experiment [4] (competition binding against [^125I] orexin, read-out: IC50 OX2R) it was 1410 nM. For the same compound, the “increase in potency compared to IPSU binding (OX2R)” value in experiment [4] (CW24 vs IPSU) is recorded as ~ 2 fold.

The record behind these values is PMC7179119, “A New Positron Emission Tomography Probe for Orexin Receptors Neuroimaging” (Molecules, 2020).
